The target of data set [1] is T1, recombinant human calcitonin receptor (hCT-R) (Homo sapiens, UniProt P30988).
T1 construct: host or cells: human astrocytoma cell line 1321N1
T1 sequence (P30988 25-474): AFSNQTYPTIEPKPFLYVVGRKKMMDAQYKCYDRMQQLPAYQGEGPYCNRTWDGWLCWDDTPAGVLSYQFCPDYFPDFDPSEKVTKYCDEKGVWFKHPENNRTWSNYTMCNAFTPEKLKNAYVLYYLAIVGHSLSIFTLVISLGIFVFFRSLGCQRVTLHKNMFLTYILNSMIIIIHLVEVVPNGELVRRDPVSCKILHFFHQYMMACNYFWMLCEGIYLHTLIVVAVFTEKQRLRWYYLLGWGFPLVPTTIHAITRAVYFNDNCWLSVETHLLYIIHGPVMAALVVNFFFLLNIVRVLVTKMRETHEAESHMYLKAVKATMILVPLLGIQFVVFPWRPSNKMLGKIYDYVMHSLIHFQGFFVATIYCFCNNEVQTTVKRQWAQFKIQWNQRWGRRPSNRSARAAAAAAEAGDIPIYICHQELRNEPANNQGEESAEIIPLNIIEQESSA
The data set is described as follows: hCT-R cAMP assay (AlphaScreen) in 1321N1 cells. In kind it is cell-based. The settings on record: cAMP formation, 45 min stimulation. A digest of the protocol:
(§1)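 1321N1 astrocytoma cells expressing recombinant human calcitonin receptor alone or with RAMP3 (AMY3) stimulated 45 min at room temperature with peptide in IBMX-containing buffer. cAMP quantified by AlphaScreen after 1 h bead incubation; EC50 fitted from at least 7 concentrations.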

Data set [2] has as its target T2, recombinant human amylin 3 receptor (hAMYR3) (Homo sapiens, UniProt O60896+P30988).
T2 construct: host or cells: human astrocytoma cell line 1321N1
T2 sequence (P30988 25-474): T1 sequence (P30988 25-474)
T2 sequence (O60896 24-148 partner): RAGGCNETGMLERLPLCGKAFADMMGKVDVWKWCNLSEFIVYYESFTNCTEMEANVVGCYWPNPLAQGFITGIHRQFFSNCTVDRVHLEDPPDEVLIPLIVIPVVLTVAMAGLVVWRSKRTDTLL
The data set is described as follows: hAMYR3 cAMP assay (AlphaScreen) in 1321N1 cells. The settings on record: cAMP formation, 45 min stimulation. The format is cell-based. The method, boiled down:
as §1
(In general: cAMP levels reflect the balance of adenylyl cyclase and phosphodiesterase activity.)

The nature of data set [3]: Assessment of physical stability: fibril formation by Thioflavin T fluorescence. The settings on record: 1 mg/mL peptide; for Fibrillation (in buffer) pH4 acetate: 50 mM acetate buffer pH 4.0, 96 hours at 40° C.; for Fibrillation (in buffer) pH7 histidine: 50 mM histidine buffer pH 7.0, 96 hours at 40° C.; for Fibrillation (in buffer) pH7 phosphate: 50 mM phosphate buffer pH 7.0, 96 hours at 40° C. Details: key: FND = fibrillation not detected; FD = fibrillation detected. In kind it is physicochemical. A digest of the protocol:
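Test peptide at 1 mg/mL with 40 μM ThT in 50 mM phosphate pH 7.0, 50 mM histidine pH 7.0, or 50 mM acetate pH 4.0, in triplicate. Fluorescence read every 10 min after 300 s agitation for 96 hours at 40° C; significant intensity rise scored as fibrillation detected (FD).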

Data set [4] is described as follows: Assessment of chemical stability in 40 mM buffers at 40° C. (RP-HPLC). In kind it is physicochemical. The settings on record: 1 mg/mL; for % degradation after 72 h at 40° C. pH4 acetate: acetate buffer pH 4, 72 h; for % degradation after 72 h at 40° C. pH6 phosphate: phosphate buffer pH 6, 72 h; for % degradation after 14 days at 40° C. pH6 phosphate: phosphate buffer pH 6, 14 days; for % degradation after 72 h at 40° C. pH7 phosphate: phosphate buffer pH 7, 72 h; for % degradation after 14 days at 40° C. pH7 phosphate: phosphate buffer pH 7, 14 days. The method, boiled down: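 Peptides at 1 mg/mL in 40 mM acetate pH 4 or phosphate pH 6 and 7 were held at 40° C for 3 and 14 days. Main-peak area-% by C8 RP-HPLC, UV 220 nm; % degradation = change in main-peak area-% versus t=0.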

Data set [5] is described as follows: Effect on acute food intake and body weight in normal Sprague Dawley rats. The format is in vivo, Sprague Dawley (SD) rats. The note with it: vehicle-corrected. An excerpt: Sprague Dawley (SD) rats were obtained from Janvier Labs, France. The animals arrived at least 14 days before the study start to allow acclimatization to experimental conditions. From arrival and throughout the study, the rats were housed in groups of 2 to 4 (n=2-4) in a light-, temperature- and humidity-controlled room. Animals had access ad libitum to food (KLIBA 3430, Provimi Kliba AG, Switzerland) and water (domestic quality tap water) during the entire study. Per group 6-8 rats were included. A vehicle group and positive control group were included in each set of tests. […] Dosing volume was 2 ml/kg. Food intake was recorded online using an automated food intake system (HM02, MBRose, Denmark) for 4 days or manually at 0 h for a predose and then 24, 48, 72 and 96 h post dosing. Body weight was measured daily.
Statistical analyses were performed using GraphPad™ Prism version 7. The measured parameters were compared using two-way ANOVA followed by Dunnett's multiple comparison tests. Differences were considered statistically significant at p<0.05.

The record followed here is patent US11382956B2, “Amylin analogues” (Zealand Pharma A/S, priority 2016, dated 2022).

Usually EC50 stands for the concentration needed to bring the measured effect to its halfway point.

Each structure is given as a SMILES string. Numbered stars: 1 amine (or outer) side, 2 acyl side, 3 side chain; on linkers, the order of the positions; unused ones are H or OH. Bridge positions count the residues as written; N and C are the ends. Square brackets hold non-standard residues; d marks the D form. Peptide text beside a SMILES is read from it. * marks the point of attachment. C20 diacid = O=C(O)CCCCCCCCCCCCCCCCCCC(=O)*; γGlu = O=C(O)[C@H](CCC(=O)[*:2])N[*:1]; Hyp = O=C(O)[C@@H]1C[C@@H](O)CN1; NMeI = CC[C@H](C)[C@H](NC)C(=O)O; Aad = N[C@@H](CCCC(=O)O)C(=O)O; Sar = CNCC(=O)O Bounds are passed on as bounds.

With `CC[C@H](C)[C@@H](C(=O)N[C@@H](CC(C)C)C(=O)N[C@@H](CO)C(=O)N[C@@H](CO)C(=O)N[C@H](C(=O)N[C@@H](CCC(=O)O)C(=O)N[C@H](C(=O)NCC(=O)N[C@@H](CO)C(=O)N[C@@H](CC(N)=O)C(=O)N[C@H](C(=O)N1C[C@H](O)C[C@H]1C(N)=O)[C@@H](C)O)[C@@H](C)O)[C@@H](C)O)N(C)C(=O)[C@H](C)NC(=O)CN(C)C(=O)[C@H](Cc1ccccc1)NC(=O)[C@H](CO)NC(=O)[C@H](CO)NC(=O)[C@H](CCCNC(=N)N)NC(=O)[C@H](CCC(N)=O)NC(=O)[C@H](CC(C)C)NC(=O)[C@H](Cc1ccccc1)NC(=O)[C@H](CCCC(=O)O)NC(=O)[C@H](C)NC(=O)[C@H](CC(C)C)NC(=O)[C@H](CCCNC(=N)N)NC(=O)[C@H](CCC(=O)O)NC(=O)[C@@H](NC(=O)[C@H](C)NC(=O)[C@@H]1CCCCNC(=O)C[C@H](NC(=O)[C@H](CCCNC(=N)N)NC(=O)CC[C@H](NC(=O)CCCCCCCCCCCCCCCCCCC(=O)O)C(=O)O)C(=O)NCC(=O)N[C@@H]([C@@H](C)O)C(=O)N[C@@H](C)C(=O)N[C@@H]([C@@H](C)O)C(=O)N1)[C@@H](C)O` [Compound 36, [19CD]-isoGlu-RD()GTATK()ATERLA-Aad-FLQRSSF-Gly(Me)-A-Ile(Me)-LSSTETGSNT-Hyp-NH2] ({C20 diacid-γGlu}-RDGTATKATERLA[Aad]FLQRSSF[Sar]A[NMeI]LSSTETGSNT[Hyp]-NH2; lactam 2-7), in data set [1], the EC50 is 0.026 nM. The EC50 in data set [2] was 0.007 nM. In data set [3], the “Fibrillation (in buffer) pH4 acetate” value is on record as “FD”, the “Fibrillation (in buffer) pH7 histidine” value is reported as “FND” and the “Fibrillation (in buffer) pH7 phosphate” value is on record as “FND”. Also, in data set [4], the “% degradation after 72 h at 40° C. pH4 acetate” value is reported as 2.5%, the “% degradation after 72 h at 40° C. pH6 phosphate” value was 2.1%, the “% degradation after 14 days at 40° C. pH6 phosphate” value is given as 1.6% and the “% degradation after 72 h at 40° C. pH7 phosphate” value was 1.0%. Moreover, the “% degradation after 14 days at 40° C. pH7 phosphate” value in data set [4] is reported as under 1%. Moreover, in data set [5] (at dose of 10 nmol/kg sc), the “Body weight reduction in % at 48 h” value is listed as 5.2% and the “Food intake reduction in % at 48 h” value worked out at 44%.
Consider `CC[C@H](C)[C@@H](C(=O)N[C@@H](CC(C)C)C(=O)N[C@@H](CO)C(=O)N[C@@H](CO)C(=O)N[C@H](C(=O)N[C@@H](CCC(=O)O)C(=O)N[C@H](C(=O)NCC(=O)N[C@@H](CO)C(=O)N[C@@H](CC(N)=O)C(=O)N[C@H](C(=O)N1C[C@H](O)C[C@H]1C(N)=O)[C@@H](C)O)C(C)C)[C@@H](C)O)N(C)C(=O)[C@H](C)NC(=O)CN(C)C(=O)[C@H](Cc1ccccc1)NC(=O)[C@H](CO)NC(=O)[C@H](CO)NC(=O)[C@H](CCCNC(=N)N)NC(=O)[C@H](CCC(N)=O)NC(=O)[C@H](CC(C)C)NC(=O)[C@H](Cc1ccccc1)NC(=O)[C@H](CCCC(=O)O)NC(=O)[C@H](C)NC(=O)[C@H](CC(C)C)NC(=O)[C@H](CCCNC(=N)N)NC(=O)[C@H](CCC(=O)O)NC(=O)[C@@H](NC(=O)[C@H](C)NC(=O)[C@@H]1CCCCNC(=O)C[C@H](NC(=O)[C@H](CCC(=O)O)NC(=O)CC[C@H](NC(=O)CCCCCCCCCCCCCCCCCCC(=O)O)C(=O)O)C(=O)NCC(=O)N[C@@H]([C@@H](C)O)C(=O)N[C@@H](C)C(=O)N[C@@H]([C@@H](C)O)C(=O)N1)[C@@H](C)O` [Compound 37, [19CD]-isoGlu-ED()GTATK()ATERLA-Aad-FLQRSSFGly(Me)-A-Ile(Me)-LSSTEVGSNT-Hyp-NH2] ({C20 diacid-γGlu}-EDGTATKATERLA[Aad]FLQRSSF[Sar]A[NMeI]LSSTEVGSNT[Hyp]-NH2; lactam 2-7), for which the EC50 in data set [1] turned out to be 0.116 nM. Also, the EC50 in data set [2] was found to be 0.031 nM. In data set [3], the “Fibrillation (in buffer) pH4 acetate” value is reported as “FD”, the “Fibrillation (in buffer) pH7 histidine” value is “FND” and the “Fibrillation (in buffer) pH7 phosphate” value is “FND”. In data set [4], the “% degradation after 72 h at 40° C. pH6 phosphate” value was under 1%, the “% degradation after 14 days at 40° C. pH6 phosphate” value was under 1%, the “% degradation after 72 h at 40° C. pH7 phosphate” value was found to be 3.0% and the “% degradation after 14 days at 40° C. pH7 phosphate” value was under 1%. In data set [5] (Dose: 30 nmol/kg sc), the “Body weight reduction in % at 48 h” value is 4.3% and the “Food intake reduction in % at 48 h” value came out at 24%.
For `CC[C@H](C)[C@@H](C(=O)N[C@@H](CC(C)C)C(=O)N[C@@H](CO)C(=O)N[C@@H](CO)C(=O)N[C@H](C(=O)N[C@@H](CCC(=O)O)C(=O)N[C@H](C(=O)NCC(=O)N[C@@H](CO)C(=O)N[C@@H](CC(N)=O)C(=O)N[C@H](C(=O)N1C[C@H](O)C[C@H]1C(N)=O)[C@@H](C)O)C(C)C)[C@@H](C)O)N(C)C(=O)[C@H](C)NC(=O)CN(C)C(=O)[C@H](Cc1ccccc1)NC(=O)[C@H](CO)NC(=O)[C@H](CO)NC(=O)[C@H](CCCNC(=N)N)NC(=O)[C@H](CCC(N)=O)NC(=O)[C@H](CC(C)C)NC(=O)[C@H](Cc1ccccc1)NC(=O)[C@H](CCCC(=O)O)NC(=O)[C@H](C)NC(=O)[C@H](CC(C)C)NC(=O)[C@H](CCCNC(=N)N)NC(=O)[C@H](CCC(N)=O)NC(=O)[C@@H](NC(=O)[C@H](C)NC(=O)[C@@H]1CCCCNC(=O)C[C@H](NC(=O)[C@H](CCCCN)NC(=O)CC[C@H](NC(=O)CCCCCCCCCCCCCCCCCCC(=O)O)C(=O)O)C(=O)NCC(=O)N[C@@H]([C@@H](C)O)C(=O)N[C@@H](C)C(=O)N[C@@H]([C@@H](C)O)C(=O)N1)[C@@H](C)O` [Compound 39, [19CD]-isoGlu-KD()GTATK()ATQRLA-Aad-FLQRSSF-Gly(Me)-Alle(Me)-LSSTEVGSNTHyp-NH2] ({C20 diacid-γGlu}-KDGTATKATQRLA[Aad]FLQRSSF[Sar]A[NMeI]LSSTEVGSNT[Hyp]-NH2; lactam 2-7), the EC50 in data set [1] was found to be 0.094 nM. In data set [2], the EC50 was found to be 0.024 nM. In data set [3], the “Fibrillation (in buffer) pH4 acetate” value is “FD”, the “Fibrillation (in buffer) pH7 histidine” value is given as “FND” and the “Fibrillation (in buffer) pH7 phosphate” value is “FND”. Besides, in data set [4], the “% degradation after 72 h at 40° C. pH4 acetate” value is reported as under 1%, the “% degradation after 72 h at 40° C. pH6 phosphate” value was under 1% and the “% degradation after 72 h at 40° C. pH7 phosphate” value is under 1%. In addition, in data set [5] (Dose: 30 nmol/kg sc), the “Body weight reduction in % at 48 h” value was 9.2% and the “Food intake reduction in % at 48 h” value worked out at 76%.
